Reference: paper PMC8288134, “Synthesis, potential antitumor activity, cell cycle analysis, and multitarget mechanisms of novel hydrazones incorporating a 4-methylsulfonylbenzene scaffold: a molecular docking study” (Journal of Enzyme Inhibition and Medicinal Chemistry, 2021)
Read-outs that look alike come from different tables or passages of the source.

What was measured:
[1] = system: NCI-H226; assay: NCI antitumor screen (SRB); assay type: cell-based; details: Homo sapiens, one dose 10 µM, read-out: Growth inhibition percentage (GI%)
[2] = system: NCI-H522; assay: NCI antitumor screen (SRB); assay type: cell-based; details: Homo sapiens
[3] = system: HT29; assay: NCI antitumor screen (SRB); assay type: cell-based; details: Homo sapiens, HT-29, one dose 10 µM, read-out: Growth inhibition percentage (GI%)
[4] = system: A549/ATCC; assay: NCI antitumor screen (SRB); assay type: cell-based; details: Homo sapiens, one dose 10 µM, read-out: Growth inhibition percentage (GI%)
[5] = system: HOP-62; assay: NCI antitumor screen (SRB); assay type: cell-based; details: Homo sapiens; HOP-62; one dose 10 µM; read-out: Growth inhibition percentage (GI%)
[6] = system: UACC-257; assay: NCI antitumor screen (SRB); assay type: cell-based, human; details: Homo sapiens, one dose 10 µM, read-out: Growth inhibition percentage (GI%)
[7] = system: SNB-75; assay: NCI antitumor screen (SRB); assay type: cell-based; details: Homo sapiens, one dose 10 µM, read-out: Growth inhibition percentage (GI%)
[8] = system: full panel of 59 cancer cell lines; assay: NCI antitumor screen, full panel; details: one dose 10 µM
[9] = system: MDA-MB-468; assay: NCI antitumor screen (SRB); assay type: cell-based; details: Homo sapiens, one dose 10 µM, read-out: Growth inhibition percentage (GI%)
[10] = system: UO-31; assay: NCI antitumor screen (SRB); assay type: cell-based, human; details: Homo sapiens, UO-31, UO-31; one dose 10 µM; read-out: Growth inhibition percentage (GI%)
[11] = system: SR; assay: NCI antitumor screen (SRB); assay type: cell-based; details: Homo sapiens, one dose 10 µM, read-out: Growth inhibition percentage (GI%)
[12] = system: IGROV1; assay: NCI antitumor screen (SRB); assay type: cell-based; details: Homo sapiens, IGROV-1, one dose 10 µM, read-out: Growth inhibition percentage (GI%)
[13] = system: UACC-62; assay: NCI antitumor screen (SRB); assay type: cell-based; details: Homo sapiens, one dose 10 µM, read-out: Growth inhibition percentage (GI%)
[14] = system: MALME-3M; assay: NCI antitumor screen (SRB); assay type: cell-based; details: Homo sapiens, one dose 10 µM, read-out: Growth inhibition percentage (GI%)
[15] = system: A498; assay: NCI antitumor screen (SRB); assay type: cell-based; details: Homo sapiens, one dose 10 µM, read-out: Growth inhibition percentage (GI%)
[16] = system: K-562; assay: NCI antitumor screen (SRB); assay type: cell-based; details: Homo sapiens, K562, read-out: Growth inhibition percentage (GI%)
[17] = system: HL-60(TB); assay: cells; assay type: cell-based, human; details: Homo sapiens, HL-60, HL-60(TB); one dose 10 µM; read-out: Growth inhibition percentage (GI%)
[18] = system: MOLT-4; assay: NCI antitumor screen (SRB); assay type: cell-based; details: Homo sapiens, one dose 10 µM, read-out: Growth inhibition percentage (GI%)
[19] = system: PC-3; assay: NCI antitumor screen (SRB); assay type: cell-based; details: Homo sapiens, one dose 10 µM, read-out: Growth inhibition percentage (GI%)
[20] = system: CAKI-1; assay: NCI antitumor screen (SRB); assay type: cell-based; details: Homo sapiens, one dose 10 µM, read-out: Growth inhibition percentage (GI%)
[21] = system: HCT-116; assay: NCI antitumor screen (SRB); assay type: cell-based; details: Homo sapiens, read-out: Growth inhibition percentage (GI%)

Compound CS(=O)(=O)c1ccc(C(=O)NN=Cc2ccc(Cl)cc2Cl)cc1 [Compound 17, N'-(2,4-Dichlorobenzylidene)-4-(methylsulfonyl)benzohydrazide] has an inhibition at 10 µM [1] of 13.6%, an inhibition at 10 µM ([2]; NCI-H522, one dose 10 µM, read-out: Growth inhibition percentage (GI%)) of 25% and an inhibition at 10 µM [3] of 11.3%. It also gave an inhibition at 10 µM [4] of 13.7%, an inhibition at 10 µM [5] of 10.2% and an inhibition at 10 µM ([6]; UACC-257, UACC-257) of 29.4%. The inhibition at 10 µM [7] was 10.9%, the “PCE: positive cytotoxic effect (number of cell lines with GI 10 to 100% / total number of cell lines)” value [8] was 9/59 and the inhibition at 10 µM [9] was 18.1%. For the same compound, the inhibition at 10 µM [10] was 12.7%.
With CS(=O)(=O)c1ccc(C(=O)NN=Cc2ccc(Cl)c(Cl)c2)cc1 [Compound 18, N'-(3,4-Dichlorobenzylidene)-4-(methylsulfonyl)benzohydrazide] the inhibition at 10 µM [11] was 24.5%, the inhibition at 10 µM ([2]; NCI-H522, read-out: Growth inhibition percentage (GI%)) was 17.2% and the inhibition at 10 µM [12] was 15%. For the same compound, the inhibition at 10 µM [13] was 11.2%, the inhibition at 10 µM [14] was 12.2% and the inhibition at 10 µM [15] was 16%. It also gave an inhibition at 10 µM [16] of 17.7%, an inhibition at 10 µM [4] of 20.1% and an inhibition at 10 µM ([6]; UACC-257) of 21.8%. It also gave an inhibition at 10 µM [17] of 30.6%, an inhibition at 10 µM [18] of 31.7% and an inhibition at 10 µM [19] of 10.3%. The “PCE: positive cytotoxic effect (number of cell lines with GI 10 to 100% / total number of cell lines)” value [8] was 14/59, the inhibition at 10 µM [20] was 10.1% and the inhibition at 10 µM [21] was 12.7%.
